What was measured:
[1] = system: A431 cells; assay: Induction of Hsc70, Hsp70A and Hsp70B′ proteins under different induction conditions, Western blotting; format: cell-based, human; details: Azetidine 5 μM, 5 hours, CdCl2 100 μM, 2 hours, ZnCl2 250 μM
[2] = system: HeLa, Jurkat and A-431 human cell lines; assay: Relative induction of Hsc70, Hsp70A and Hsp70B′ proteins; format: cell-based
[3] = system: HeLa cells; assay: Induction of Hsc70, Hsp70A and Hsp70B′ proteins under different induction conditions, Western blotting; format: cell-based, human; details: Azetidine 5 μM, 5 hours, CdCl2 100 μM, 2 hours, ZnCl2 250 μM; for Induction of Hsc70, relative protein level: 20 ug total cell lysate
[4] = system: hsp70B′ mRNA; details: Leung et al., Biochem. J. 267:125-132, 1990; cited from earlier work
[5] = system: Jurkat cells; assay: Induction of Hsc70, Hsp70A and Hsp70B′ proteins under different induction conditions, Western blotting; format: cell-based, human; details: Azetidine 5 μM, 5 hours, CdCl2 100 μM, 2 hours, ZnCl2 250 μM
[6] = molecular target: T1, Hsp70B′ (Homo sapiens, UniProt P17066); assay: Indirect EIA, relative titre index; format: binding
T1 construct: E. coli BL21 (DE3) cells harboring the expression plasmid for full length human Hsp70B′; made in house; host or cells: E. coli BL21 (DE3) / BLR (DE3), pET24a

[7] = molecular target: recombinant M. tuberculosis Hsp71 (Mycobacterium tuberculosis, UniProt P9WMJ9)
[8] = molecular target: T2, unconjugated CB2 peptide (Homo sapiens, UniProt P17066); assay: Indirect EIA, relative titre index; format: binding; details: relative to irrelevant antibody
T2 construct: The CB peptide was also resynthesized on a separate occasion and designated CB2; purchased Research Genetics, Inc; host or cells: chemical synthesis

[9] = molecular target: T3, recombinant hamster Grp78 (Mesocricetus auratus, UniProt P07823); assay: Indirect EIA, relative titre index; format: binding; details: Grp78 Protein; relative to irrelevant antibody
T3 construct: purchased Stressgen Biotechnologies SPP-765

[10] = molecular target: T4, unconjugated TCB peptide (Homo sapiens, UniProt P17066); assay: Indirect EIA, relative titre index; format: binding; details: relative to irrelevant antibody
T4 construct: purchased Research Genetics, Inc; host or cells: chemical synthesis

[11] = molecular target: T5, 68 kDa (Hsp70B′) protein from HeLa cell lysates (Homo sapiens, UniProt P17066); assay: Immunoblotting of unstressed and heat stressed human cell lysates; format: binding; set-up: key to Reactivity with 68 kDa (Hsp70B′) protein, HeLa: 0 = no signal; 3 = a very strong signal
T5 construct: endogenous in cells; host or cells: HeLa (ATCC CCL-2), unstressed and heat stressed

[12] = molecular target: E. coli DnaK (Escherichia coli, UniProt P0A6Y8)
[13] = molecular target: T6, recombinant bovine Hsc70 (Bos taurus, UniProt P19120); assay: Indirect EIA, relative titre index; format: binding; details: Hsc70 Protein; relative to irrelevant antibody
T6 construct: purchased Stressgen Biotechnologies SPP-751

[14] = molecular target: T7, unconjugated CE peptide (Homo sapiens, UniProt P17066); assay: Indirect EIA, relative titre index; format: binding; details: relative to irrelevant antibody
T7 construct: purchased Research Genetics, Inc; host or cells: chemical synthesis

[15] = system: immunizing peptide; assay: Anti-peptide titre ELISA with peptide on the solid phase; format: binding, human; details: rabbit host
Description: Methods: Hsp70B′ Antibodies were produced as follows. Hsp70B′ antibodies were produced in rabbits, goats and mice with either synthetic peptides or recombinant Hsp70B′ protein as immunogen. Eight peptides were chosen from the human Hsp70B′ amino acid sequence. One of the Hsp70B′ peptides, the NT peptide […](C) (SEQ ID NO:9) corresponded to an N-terminal fragment. […] Sera were collected at various time points and the antibody response to the immunizing protein or peptide was evaluated in an indirect enzyme immunoassay (EIA). Titres were established as the dilution factor at which the absorbance in the test sample was equal to 0.2 optical density units. […]
Anti-peptide titre was determined as follows. […] The anti-peptide titres in the rabbits, goats, and mice were determined in an ELISA with peptide on the solid phase. […]
Biotinylated secondary antibodies (100 μl) were added to each microtitre plate test well and incubated for four hours at room temperature. […] The plates were read at 414 λ, 20 minutes following the addition of substrate. Titres were established as the reciprocal dilution factor at which the test sample was equal to 0.2 absorbance units.

[16] = molecular target: T8, recombinant human Hsp70A (Homo sapiens, UniProt P0DMV8); assay: Indirect EIA, relative titre index; format: binding; details: Hsp70A Protein; relative to irrelevant antibody
T8 construct: purchased Stressgen Biotechnologies SPP-755

[17] = molecular target: T9, unconjugated ECB peptide (Homo sapiens, UniProt P17066); assay: Indirect EIA, relative titre index; format: binding; details: relative to irrelevant antibody
T9 construct: purchased Research Genetics, Inc; host or cells: chemical synthesis

[18] = molecular target: T1, Hsp70B′; assay: Western blotting of HSP70 family members; format: binding; details: SDS-denatured recombinant protein; band intensity 0-3

T1 sequence (P17066 whole entry): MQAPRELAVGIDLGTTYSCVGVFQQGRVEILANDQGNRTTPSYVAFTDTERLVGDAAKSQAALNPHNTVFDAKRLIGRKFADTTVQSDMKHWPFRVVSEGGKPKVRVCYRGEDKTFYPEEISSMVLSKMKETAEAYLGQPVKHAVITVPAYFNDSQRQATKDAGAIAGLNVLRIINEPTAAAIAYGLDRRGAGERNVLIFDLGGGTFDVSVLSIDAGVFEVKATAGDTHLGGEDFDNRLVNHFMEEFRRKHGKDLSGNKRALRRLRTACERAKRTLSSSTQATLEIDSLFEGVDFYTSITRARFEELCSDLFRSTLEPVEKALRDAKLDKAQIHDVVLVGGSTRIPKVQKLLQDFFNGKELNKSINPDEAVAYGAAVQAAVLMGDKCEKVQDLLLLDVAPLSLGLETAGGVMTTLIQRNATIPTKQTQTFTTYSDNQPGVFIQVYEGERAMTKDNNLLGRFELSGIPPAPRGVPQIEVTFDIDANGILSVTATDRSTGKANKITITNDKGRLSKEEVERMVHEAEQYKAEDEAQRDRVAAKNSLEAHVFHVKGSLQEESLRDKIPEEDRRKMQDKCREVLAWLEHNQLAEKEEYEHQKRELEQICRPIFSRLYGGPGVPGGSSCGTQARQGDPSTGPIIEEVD
T5 sequence (P17066 whole entry): as above
T3 sequence (P07823 19-654): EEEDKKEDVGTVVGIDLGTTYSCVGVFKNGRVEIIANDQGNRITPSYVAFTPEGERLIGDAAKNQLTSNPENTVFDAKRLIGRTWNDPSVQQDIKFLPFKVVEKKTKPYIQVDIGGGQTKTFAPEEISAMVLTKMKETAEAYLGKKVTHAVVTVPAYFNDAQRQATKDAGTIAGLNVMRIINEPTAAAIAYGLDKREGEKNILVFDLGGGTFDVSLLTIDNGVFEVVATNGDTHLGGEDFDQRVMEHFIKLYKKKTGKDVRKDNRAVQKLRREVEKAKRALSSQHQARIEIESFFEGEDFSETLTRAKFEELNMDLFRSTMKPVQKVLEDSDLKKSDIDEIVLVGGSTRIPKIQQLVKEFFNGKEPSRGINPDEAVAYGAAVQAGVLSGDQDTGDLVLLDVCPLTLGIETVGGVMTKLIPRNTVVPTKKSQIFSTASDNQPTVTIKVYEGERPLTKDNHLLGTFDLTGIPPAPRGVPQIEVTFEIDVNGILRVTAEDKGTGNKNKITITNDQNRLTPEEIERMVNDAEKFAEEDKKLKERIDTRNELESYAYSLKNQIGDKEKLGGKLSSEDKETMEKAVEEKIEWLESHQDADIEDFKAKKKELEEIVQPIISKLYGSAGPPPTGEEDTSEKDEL
recombinant M. tuberculosis Hsp71, sequence (P9WMJ9 whole entry): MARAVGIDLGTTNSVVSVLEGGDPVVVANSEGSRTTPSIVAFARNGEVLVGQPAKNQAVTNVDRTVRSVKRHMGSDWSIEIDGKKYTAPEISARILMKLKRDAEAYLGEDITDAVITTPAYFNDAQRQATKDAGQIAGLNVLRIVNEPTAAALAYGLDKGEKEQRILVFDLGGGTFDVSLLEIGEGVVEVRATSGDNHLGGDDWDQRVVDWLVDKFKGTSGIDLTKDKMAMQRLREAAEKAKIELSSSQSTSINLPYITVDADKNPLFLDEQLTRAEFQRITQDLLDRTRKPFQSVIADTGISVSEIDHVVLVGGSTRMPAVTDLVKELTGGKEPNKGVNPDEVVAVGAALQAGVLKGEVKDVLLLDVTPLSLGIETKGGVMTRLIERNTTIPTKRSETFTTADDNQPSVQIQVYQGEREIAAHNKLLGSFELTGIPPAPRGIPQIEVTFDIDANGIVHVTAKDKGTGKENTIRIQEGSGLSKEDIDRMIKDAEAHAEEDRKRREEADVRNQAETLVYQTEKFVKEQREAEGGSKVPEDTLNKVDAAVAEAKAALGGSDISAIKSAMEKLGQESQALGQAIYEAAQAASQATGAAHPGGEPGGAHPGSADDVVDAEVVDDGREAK
E. coli DnaK, sequence (P0A6Y8 whole entry): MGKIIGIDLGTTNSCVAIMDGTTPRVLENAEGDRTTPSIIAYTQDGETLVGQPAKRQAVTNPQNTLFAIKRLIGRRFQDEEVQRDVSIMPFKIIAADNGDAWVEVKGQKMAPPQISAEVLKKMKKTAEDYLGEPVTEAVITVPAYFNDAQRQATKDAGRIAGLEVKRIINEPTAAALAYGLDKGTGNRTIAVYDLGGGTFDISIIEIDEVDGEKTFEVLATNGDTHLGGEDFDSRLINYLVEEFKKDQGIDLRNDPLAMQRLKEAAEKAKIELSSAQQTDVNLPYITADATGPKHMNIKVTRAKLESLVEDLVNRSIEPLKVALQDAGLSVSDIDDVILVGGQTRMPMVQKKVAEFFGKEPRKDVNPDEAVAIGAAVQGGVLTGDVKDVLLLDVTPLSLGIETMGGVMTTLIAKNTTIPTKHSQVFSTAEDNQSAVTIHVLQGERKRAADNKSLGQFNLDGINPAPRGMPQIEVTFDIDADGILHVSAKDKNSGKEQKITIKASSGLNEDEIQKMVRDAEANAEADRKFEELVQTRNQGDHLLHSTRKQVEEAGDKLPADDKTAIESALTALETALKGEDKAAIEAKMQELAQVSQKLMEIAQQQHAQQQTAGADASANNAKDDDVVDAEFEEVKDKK
T8 sequence (P0DMV8 whole entry): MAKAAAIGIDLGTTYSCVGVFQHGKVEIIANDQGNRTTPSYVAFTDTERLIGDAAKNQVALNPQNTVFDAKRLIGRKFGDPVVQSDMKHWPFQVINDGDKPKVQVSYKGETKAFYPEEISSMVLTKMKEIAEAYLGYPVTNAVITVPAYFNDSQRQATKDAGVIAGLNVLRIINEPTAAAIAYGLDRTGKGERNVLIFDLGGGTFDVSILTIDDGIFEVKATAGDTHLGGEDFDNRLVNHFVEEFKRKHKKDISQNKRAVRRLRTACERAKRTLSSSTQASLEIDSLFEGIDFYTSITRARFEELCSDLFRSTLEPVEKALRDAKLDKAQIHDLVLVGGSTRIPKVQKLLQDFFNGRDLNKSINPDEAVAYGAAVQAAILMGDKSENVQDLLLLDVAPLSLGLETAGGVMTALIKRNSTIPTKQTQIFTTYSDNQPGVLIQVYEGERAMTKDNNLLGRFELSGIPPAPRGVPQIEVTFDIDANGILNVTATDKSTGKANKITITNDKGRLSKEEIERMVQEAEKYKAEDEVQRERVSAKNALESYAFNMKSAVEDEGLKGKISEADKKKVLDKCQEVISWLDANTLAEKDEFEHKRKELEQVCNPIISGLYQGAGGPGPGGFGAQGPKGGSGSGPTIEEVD
T6 sequence (P19120 whole entry): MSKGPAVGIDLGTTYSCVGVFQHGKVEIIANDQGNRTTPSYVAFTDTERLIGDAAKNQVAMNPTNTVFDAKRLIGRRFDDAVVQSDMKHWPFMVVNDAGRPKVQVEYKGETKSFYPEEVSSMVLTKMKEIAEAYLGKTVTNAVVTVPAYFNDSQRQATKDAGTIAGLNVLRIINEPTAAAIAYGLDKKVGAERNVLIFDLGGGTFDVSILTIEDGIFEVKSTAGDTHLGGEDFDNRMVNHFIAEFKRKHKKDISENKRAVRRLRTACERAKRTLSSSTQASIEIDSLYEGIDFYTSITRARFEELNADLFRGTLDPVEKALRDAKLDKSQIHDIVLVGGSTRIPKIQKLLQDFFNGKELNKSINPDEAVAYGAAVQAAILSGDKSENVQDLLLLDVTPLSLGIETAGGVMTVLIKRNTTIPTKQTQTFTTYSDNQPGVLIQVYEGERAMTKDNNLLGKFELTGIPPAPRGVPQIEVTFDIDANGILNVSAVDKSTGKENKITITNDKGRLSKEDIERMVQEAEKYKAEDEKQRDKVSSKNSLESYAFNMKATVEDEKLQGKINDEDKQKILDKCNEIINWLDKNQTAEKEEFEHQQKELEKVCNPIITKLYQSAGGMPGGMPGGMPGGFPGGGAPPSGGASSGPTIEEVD

| Compound | Induction of Hsc70, relative protein level [1] | Induction of Hsp70A, relative protein level [1] | Induction of Hsp70A/B′, relative protein level [1] | Induction of Hsp70B′, relative protein level [1] | Expression of the constitutive Hsc70 protein [2] | Induction of Hsp70B′ protein [2] | Induction of Hsp70A, relative protein level [3] | Induction of Hsp70A/B′, relative protein level [3] | Induction of Hsp70B′, relative protein level [3] | Induction of Hsc70, relative protein level [3] | Induction of Hsc70, relative protein level [5] | Induction of Hsp70A, relative protein level [5] | Induction of Hsp70A/B′, relative protein level [5] | Induction of Hsp70B′, relative protein level [5] | further results |
| --- | --- | --- | --- | --- | --- | --- | --- | --- | --- | --- | --- | --- | --- | --- | --- |
| [Cl][Cd][Cl] [CdCl2] | +3 | +2 | +3 | +1 | not affected | induced | +3 | +3 | +2 | +3 | +3 | +2 | +2 | +3 | hsp70B′ mRNA after treatment [4]: only trace amounts |
| [Cl-].[Cl-].[Zn+2] [ZnCl2] | +3 | +2 | +3 | +2 | not affected | induced | +3 | +3 | +1 | +3 | +3 | +2 | +1 | +1 |  |
| ECB (VPGGSSCGTQARQGDPSTGPI) |  |  |  |  |  |  |  |  |  |  |  |  |  |  | Relative Titre Index ([6]; Hsp70B′ Protein, relative to irrelevant antibody, rabbit antibody): ≧41; Preferential reactivity with Hsp70B′ over other HSP70 protein homologs ([6]; based on absolute relative titre index values): 41 fold; Relative Titre Index [7]: 1; Relative Titre Index [8]: ≧86; Relative Titre Index [9]: 1; Relative Titre Index [10]: *1; Reactivity with 68 kDa (Hsp70B′) protein, HeLa HS ([11]; heat stressed HeLa lysate, 10-20 μg): 3; Antisera that specifically detected Hsp70B′ in immunoblots (fraction of rabbits) ([11]; sera from three individual rabbits): ⅓; Reactivity with 68 kDa (Hsp70B′) protein, HeLa ([11]; unstressed HeLa lysate, 10-20 μg): 0; Relative Titre Index [12]: 1; Relative Titre Index [13]: 1; Relative Titre Index [14]: 1; # Animals Responding [15]: 3/3; Antisera Titer (EIA) ([15]; individual animals, reciprocal dilution giving 0.2 absorbance units): >204800; Relative Titre Index [16]: 1; Relative Titre Index [17]: ≧129; Hsp70B′ Reactivity Rec. protein [18]: 3 |
